# Experiments:
# [1] = Lipophilicity, logD of compound at pH 7.4 by shake flask method; assay type: physicochemical; conditions: buffer
# [2] = Microsomal stability in human liver microsome assessed as clearance at 1.0 uM preincubated for 5 mins followed by NADPH addition measured upto 60 mins by LC-MS/MS analysis; assay type: ADME; conditions: liver microsomes, time < 65 min
# [3] = Microsomal stability in rat liver microsome assessed as clearance at 1.0 uM preincubated for 5 mins followed by NADPH addition measured upto 60 mins by LC-MS/MS analysis; assay type: ADME; conditions: liver microsomes, time < 65 min
# [4] = Plasma clearance in Sprague-Dawley rat at 0.5 mg/kg, iv measured upto 8 hrs by LC-MS/MS analysis; assay type: ADME, organism-based
# [5] = Half life in Sprague-Dawley rat at 2 mg/kg, po measured upto 8 hrs by LC-MS/MS analysis; assay type: ADME, organism-based; conditions: in vivo
# [6] = Volume of distribution at steady state in Sprague-Dawley rat at […] measured upto 8 hrs by LC-MS/MS analysis; assay type: ADME, organism-based; conditions: in vivo
# [7] = Oral bioavailability in Sprague-Dawley rat at 2 mg/kg measured upto 8 hrs by LC-MS/MS analysis; assay type: ADME, organism-based; conditions: in vivo
# [8] = AUC in Sprague-Dawley rat at 0.5 mg/kg, iv measured upto 8 hrs by LC-MS/MS analysis; assay type: ADME, organism-based; set-up: dose 0.5 mg/kg, time < 8 hrs, route iv; conditions: in vivo
# [9] = Unbound clearance in Sprague-Dawley rat at 0.5 mg/kg, iv measured upto 8 hrs by LC-MS/MS analysis; assay type: ADME, organism-based; conditions: in vivo
Compound,logD [1],CLhep predicted at 1 µM [2],CLhep predicted at 1 µM [3],clearance [4],half-life [5],Vdss [6],bioavailability [7],AUC at 8 h [8],CL free [9]
C[C@@H]1COCCN1c1cc2n(n1)C[C@H](C(F)(F)F)NC2=O,1.1,< 3.9 mL/min/kg,< 6.1 mL/min/kg,,,,,,
C[C@@H]1CNC(=O)c2cc(-c3ccnc(NC(=O)C4CC4)c3)nn21,1.7,< 3.9 mL/min/kg,< 6.1 mL/min/kg,,,,,,
Cc1cnc(NC(=O)C2CC2)cc1-c1cc2n(n1)[C@H](C(C)C)CNC2=O,2.5,11 mL/min/kg,25 mL/min/kg,,,,,,
C[C@@H]1COCCN1c1cc2n(n1)[C@H](C1CC1)C(C)(C)NC2=O,1.5,< 3.9 mL/min/kg,< 6.1 mL/min/kg,,,,,,
C[C@@H]1COCCN1c1cc2n(n1)[C@H](C1CC1)[C@H](C1CC1)NC2=O,1.7,< 3.9 mL/min/kg,< 6.1 mL/min/kg,,,,,,
CC(C)[C@@H]1CNC(=O)c2cc(-c3ccnc(NC(=O)C4CC4)c3)nn21,2.4,< 3.9 mL/min/kg,22 mL/min/kg,,,,,,
O=C(Nc1cc2cc(-c3nncn3-c3ccccc3Cl)ccc2cn1)C1CC1F (configuration not stated),3.1,12 mL/min/kg,7.2 mL/min/kg,,,,,,
C[C@@H]1COCCN1c1cc2n(n1)[C@@H]1CCC[C@@H]1NC2=O,1,< 3.9 mL/min/kg,< 6.1 mL/min/kg,7.8 mL/min/kg,1.4 h,0.83 L/kg,61%,4 µM·h,
C[C@@H]1COCCN1c1cc2n(n1)[C@H](C1CC1)C1(CC1)NC2=O,1.6,< 3.9 mL/min/kg,11 mL/min/kg,,,,,,
O=C(Nc1cc(-n2cnc3ccccc32)ccn1)C1CC1,2.8,19 mL/min/kg,34 mL/min/kg,,,,,,
Cn1ccc(-c2ccnc(NC(=O)C3CC3)c2)cc1=O,1.3,6.4 mL/min/kg,< 6.1 mL/min/kg,,,,,,
NC(=O)c1ccccc1Nc1ccnc(NC(=O)C2CC2)c1,1.8,5 mL/min/kg,15 mL/min/kg,,,,,,
O=C(Nc1cc(-c2ccn3ccnc3c2)ccn1)C1CC1,2.1,17 mL/min/kg,40 mL/min/kg,,,,,,

# Second part, the compound after the results:
logD [1],CLhep predicted at 1 µM [2],CLhep predicted at 1 µM [3],clearance [4],half-life [5],Vdss [6],bioavailability [7],AUC at 8 h [8],CL free [9],Compound
1.6,9.1 mL/min/kg,28 mL/min/kg,,,,,,,C[C@@H]1COCCN1c1cc2n(n1)[C@H](C1CCCC1)CNC2=O
1.4,4.7 mL/min/kg,24 mL/min/kg,,,,,,,C[C@@H]1COCCN1c1cc2n(n1)[C@H](C(C)(C)C)CNC2=O
0.8,< 3.9 mL/min/kg,8.5 mL/min/kg,,,,,,,C[C@@H]1COCCN1c1cc2n(n1)[C@H](C(F)(F)F)CNC2=O
1,< 3.9 mL/min/kg,11 mL/min/kg,,,,,,,C[C@@H]1COCCN1c1cc2n(n1)[C@H](C1CC1)CNC2=O
1.3,< 3.9 mL/min/kg,7.8 mL/min/kg,,,,,,,C[C@@H]1NC(=O)c2cc(N3CCOC[C@H]3C)nn2[C@@H]1C1CC1
1.5,< 3.9 mL/min/kg,23 mL/min/kg,,,,,,,C[C@@H]1COCCN1c1cc2n(n1)[C@H](C1CCC1)CNC2=O
,< 3.9 mL/min/kg,< 6.1 mL/min/kg,,,,,,,"C[C@@H]1COCCN1c1cc2n(n1)C(C(C)(C)O)CNC2=O (single isomer, unassigned)"
0.7,< 3.9 mL/min/kg,< 6.1 mL/min/kg,,,,,,,CC(C)[C@@H]1CNC(=O)c2cc(N3CCOCC3)nn21
1.2,< 3.9 mL/min/kg,12 mL/min/kg,,,,68%,,19 mL/min/kg,CC(C)[C@@H]1CNC(=O)c2cc(N3CCOC[C@H]3C)nn21

# Reference: ChEMBL document CHEMBL5136982, “Structure-Based Design of Potent, Selective, and Orally Bioavailable VPS34 Kinase Inhibitors” (J Med Chem, 2022)
